Counter-ions that a name gives are not always drawn.
Experiments:
Adrenergic alpha2C = Adrenergic alpha2C (Homo sapiens, UniProt P18825); assay: Adrenergic alpha2C binding
From the text: (§1) Further, the compounds of the invention may be tested in binding assays and functional activity assays by well known methods for other physiologically important receptors such as, but not limited to, the hERO channel, other serotonin receptors (specifically 5-HT1B, 5-HT1D, receptors, lack of agonist activity at 5-HT2B receptors, 5-HT2C, 5-HT5, 5-HT6, and 5-HT7 receptors), dopaminergic receptors (specifically D1, D2, and D3), GABAA receptors, adrenergic receptors and monoamine transporters.

5-HT2B [1] = biological target: T1, 5-HT2B (Homo sapiens, UniProt P41595); assay: 5-HT2B agonist functional activity; assay type: biochemical
T1 sequence (P41595 whole entry, species assumed): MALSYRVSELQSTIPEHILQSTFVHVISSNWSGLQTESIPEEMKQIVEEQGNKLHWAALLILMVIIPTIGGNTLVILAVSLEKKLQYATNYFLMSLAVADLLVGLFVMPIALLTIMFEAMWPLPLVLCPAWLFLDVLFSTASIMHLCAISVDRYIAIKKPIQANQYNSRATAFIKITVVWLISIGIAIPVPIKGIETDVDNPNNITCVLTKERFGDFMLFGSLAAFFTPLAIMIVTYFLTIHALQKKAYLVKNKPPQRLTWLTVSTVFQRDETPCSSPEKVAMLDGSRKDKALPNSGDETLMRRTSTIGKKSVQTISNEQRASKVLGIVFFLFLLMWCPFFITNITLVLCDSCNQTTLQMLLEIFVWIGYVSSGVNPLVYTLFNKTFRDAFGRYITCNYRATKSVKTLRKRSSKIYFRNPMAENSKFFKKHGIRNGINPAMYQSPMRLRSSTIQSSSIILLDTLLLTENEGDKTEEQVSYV
From the text: as §1

Dopamine D2 = Dopamine D2 (Homo sapiens, UniProt P14416); assay: Dopamine D2 binding
Dopamine D2, sequence (P14416 whole entry): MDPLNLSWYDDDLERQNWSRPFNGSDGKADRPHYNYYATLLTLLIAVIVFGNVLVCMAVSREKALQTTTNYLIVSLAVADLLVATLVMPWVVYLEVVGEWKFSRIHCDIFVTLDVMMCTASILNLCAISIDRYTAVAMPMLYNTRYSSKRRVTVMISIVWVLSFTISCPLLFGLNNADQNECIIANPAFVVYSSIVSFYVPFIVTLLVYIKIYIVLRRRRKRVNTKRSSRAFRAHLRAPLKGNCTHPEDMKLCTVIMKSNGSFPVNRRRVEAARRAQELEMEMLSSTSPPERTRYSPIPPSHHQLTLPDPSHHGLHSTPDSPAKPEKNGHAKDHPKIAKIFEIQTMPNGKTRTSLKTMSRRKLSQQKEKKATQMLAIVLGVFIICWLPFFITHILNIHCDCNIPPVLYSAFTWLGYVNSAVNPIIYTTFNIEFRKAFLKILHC
From the text: as §1

[2] = biological target: T2, recombinant 5-HT2C receptor (human) (Homo sapiens, UniProt P28335); assay: 5-HT2C competition binding assay ([125I]-DOI, SPA)
T2 construct: expressed in transfected cells; host or cells: AV-12 (membranes)
Experimental: [^125I]-(±)DOI binding experiments are carried out in SPA 96-well format. Membranes used in this assay are prepared from AV-12 cells stably expressing recombinant 5-HT2C receptor (human). The incubation is initiated by the addition of a mixture of WGA PVT SPA beads (0.5 mg/well, Perkin Elmer (MA, USA), RPNQ0001) and 2.5 μg membranes to assay buffer (50 mM Tris-HCl, 10 mM MgCl2, 0.5 mM EDTA, 10 μM pargyline, 0.1% ascorbic acid, pH7.4) containing 0.2 nM [[^125I]-(±)DOI and varying concentrations of the test compound (10 point concentration response curves). Non-specific binding is determined in the presence of 20 μM 1-(1-Naphthyl) piperazine. Samples are incubated for 4 hr. at room temperature (22° C.) and then read in a Microbeta Trilux.
Curves are evaluated using a 4-parameter logistic nonlinear equation to obtain the concentration of competitor causing 50% inhibition of radioligand binding (IC50). Equilibrium dissociation constants (Ki) are calculated according to the equation Ki=IC50/(1+L/Kd), where L equals the concentration of radioligand used in the experiment and Kd equals the equilibrium dissociation constant of the radioligand for the receptor, determined from standard saturation analysis or homologous competition experiments. […]

5-HT5 = 5-HT5 (Homo sapiens, UniProt P47898); assay: 5-HT5 binding
5-HT5, sequence (P47898 whole entry, species assumed): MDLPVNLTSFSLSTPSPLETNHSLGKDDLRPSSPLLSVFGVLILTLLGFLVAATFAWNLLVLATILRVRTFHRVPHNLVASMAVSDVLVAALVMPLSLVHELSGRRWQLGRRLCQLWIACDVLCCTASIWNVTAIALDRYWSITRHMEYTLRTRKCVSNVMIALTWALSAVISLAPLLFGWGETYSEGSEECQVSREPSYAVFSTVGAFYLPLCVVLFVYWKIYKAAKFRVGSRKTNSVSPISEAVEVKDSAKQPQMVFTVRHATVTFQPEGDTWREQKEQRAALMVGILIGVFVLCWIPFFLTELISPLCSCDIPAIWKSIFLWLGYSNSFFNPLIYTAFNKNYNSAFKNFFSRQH
From the text: as §1

Dopamine D3 = Dopamine D3 (Homo sapiens, UniProt P35462); assay: Dopamine D3 binding
Dopamine D3, sequence (P35462 whole entry): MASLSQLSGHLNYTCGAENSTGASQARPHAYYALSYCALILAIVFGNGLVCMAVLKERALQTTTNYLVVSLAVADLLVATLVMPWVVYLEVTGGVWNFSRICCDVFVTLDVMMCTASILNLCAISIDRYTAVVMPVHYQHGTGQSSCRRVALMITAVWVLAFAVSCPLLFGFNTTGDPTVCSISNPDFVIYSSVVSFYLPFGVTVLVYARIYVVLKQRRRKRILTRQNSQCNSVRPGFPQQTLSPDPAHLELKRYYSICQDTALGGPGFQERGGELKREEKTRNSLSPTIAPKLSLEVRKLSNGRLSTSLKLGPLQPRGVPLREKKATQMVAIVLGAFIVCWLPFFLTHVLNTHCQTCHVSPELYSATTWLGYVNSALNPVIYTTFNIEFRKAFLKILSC
From the text: as §1

native GABAA receptors = assay: GABAA antagonism using native receptors in primary neuronal cultures (FLIPR); assay type: cell-based; conditions: against GABA at 10 μM, rat cortical embryonic neurons
Experimental: Activity of compounds on native GABAA receptors is evaluated by monitoring calcium fluxes using a 96 well format FLIPR® system (Fluorometric Imaging Plate Reader (FLIPR®, Molecular Devices). Briefly, cortical embryonic neurons are dissociated from E18 rat embryos and plated at optimum density into black-walled, transparent bottom poly-D-lysine coated 96-well FLIPR® plates. After loading the cells with a calcium sensitive dye (Fluo4-AM, Molecular Devices), the cells are bathed in a solution containing low chloride (chloride replaced by gluconate). Under these conditions activation of GABAA receptors causes an efflux of chloride ions (in the direction of the chemical gradient), which results in membrane depolarization and consequently activation of voltage gated calcium channels (VGCCs). Calcium influx through VGCCs is recorded and analysed offline using the FLIPR® system. For a pharmacological validation of the assay, concentration response curves (CRC) are recorded for the standard agonist (GABA) and standard antagonist (Gabazine). […]
The antagonist effects of compounds are quantified using 10-point dose response curves by comparing the peak fluorescent responses to the agonist GABA in the presence and absence of compound. […] Antagonist effects are calculated as a percent of the assay window. […]

Dopamine D1 = Dopamine D1 (Homo sapiens, UniProt P21728); assay: Dopamine D1 binding
Dopamine D1, sequence (P21728 whole entry): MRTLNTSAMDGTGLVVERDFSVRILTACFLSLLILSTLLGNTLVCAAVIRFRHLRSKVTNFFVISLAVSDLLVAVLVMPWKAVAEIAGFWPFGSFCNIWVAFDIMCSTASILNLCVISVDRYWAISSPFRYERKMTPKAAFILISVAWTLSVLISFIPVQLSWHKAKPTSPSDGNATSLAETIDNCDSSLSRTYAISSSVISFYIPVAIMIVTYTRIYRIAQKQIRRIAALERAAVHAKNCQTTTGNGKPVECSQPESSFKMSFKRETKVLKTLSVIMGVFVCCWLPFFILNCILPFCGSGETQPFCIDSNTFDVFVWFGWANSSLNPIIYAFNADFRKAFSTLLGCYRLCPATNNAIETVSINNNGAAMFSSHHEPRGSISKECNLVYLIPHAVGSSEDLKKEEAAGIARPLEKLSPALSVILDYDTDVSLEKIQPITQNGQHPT
From the text: as §1

Dopamine Transporter = Dopamine Transporter (Homo sapiens, UniProt Q01959); assay: Dopamine transporter binding
From the text: as §1

Norepinephrine Transport = Norepinephrine Transport (Homo sapiens, UniProt P23975); assay: Norepinephrine transporter binding
From the text: as §1

hERG Channel = hERG Channel (Homo sapiens, UniProt Q12809); assay: hERG channel
hERG Channel, sequence (Q12809 whole entry): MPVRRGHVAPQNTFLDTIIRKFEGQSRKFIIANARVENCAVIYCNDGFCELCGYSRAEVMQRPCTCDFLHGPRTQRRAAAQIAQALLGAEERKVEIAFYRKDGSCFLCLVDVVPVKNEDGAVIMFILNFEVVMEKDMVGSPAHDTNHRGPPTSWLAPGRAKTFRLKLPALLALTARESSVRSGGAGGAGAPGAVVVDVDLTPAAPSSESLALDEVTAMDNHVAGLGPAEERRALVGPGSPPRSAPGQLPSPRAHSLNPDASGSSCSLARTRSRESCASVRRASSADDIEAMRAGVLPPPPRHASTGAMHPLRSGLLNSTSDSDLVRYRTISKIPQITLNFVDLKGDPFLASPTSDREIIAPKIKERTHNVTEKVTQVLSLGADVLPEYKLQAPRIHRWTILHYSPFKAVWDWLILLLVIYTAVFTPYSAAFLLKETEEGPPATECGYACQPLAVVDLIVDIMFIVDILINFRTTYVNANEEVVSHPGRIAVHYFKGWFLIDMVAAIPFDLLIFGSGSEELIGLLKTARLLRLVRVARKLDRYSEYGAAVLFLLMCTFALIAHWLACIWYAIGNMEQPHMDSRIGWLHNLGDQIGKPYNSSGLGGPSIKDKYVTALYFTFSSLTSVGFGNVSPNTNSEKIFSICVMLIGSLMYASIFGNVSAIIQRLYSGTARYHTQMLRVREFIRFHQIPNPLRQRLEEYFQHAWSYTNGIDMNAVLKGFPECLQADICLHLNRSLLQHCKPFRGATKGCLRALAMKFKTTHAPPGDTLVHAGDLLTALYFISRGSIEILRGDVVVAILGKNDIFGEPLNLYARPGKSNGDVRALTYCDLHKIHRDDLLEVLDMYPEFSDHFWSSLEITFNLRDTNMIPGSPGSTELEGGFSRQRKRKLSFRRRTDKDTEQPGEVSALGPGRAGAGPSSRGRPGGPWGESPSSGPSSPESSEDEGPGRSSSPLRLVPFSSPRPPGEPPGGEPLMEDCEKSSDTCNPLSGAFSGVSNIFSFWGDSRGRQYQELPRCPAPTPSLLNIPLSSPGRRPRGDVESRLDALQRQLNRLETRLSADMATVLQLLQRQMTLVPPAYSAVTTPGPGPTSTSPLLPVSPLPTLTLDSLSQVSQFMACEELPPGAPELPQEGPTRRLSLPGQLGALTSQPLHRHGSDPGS
From the text: as §1

Serotonin Transporter = Serotonin Transporter (Homo sapiens, UniProt P31645); assay: Serotonin transporter binding
Serotonin Transporter, sequence (P31645 whole entry): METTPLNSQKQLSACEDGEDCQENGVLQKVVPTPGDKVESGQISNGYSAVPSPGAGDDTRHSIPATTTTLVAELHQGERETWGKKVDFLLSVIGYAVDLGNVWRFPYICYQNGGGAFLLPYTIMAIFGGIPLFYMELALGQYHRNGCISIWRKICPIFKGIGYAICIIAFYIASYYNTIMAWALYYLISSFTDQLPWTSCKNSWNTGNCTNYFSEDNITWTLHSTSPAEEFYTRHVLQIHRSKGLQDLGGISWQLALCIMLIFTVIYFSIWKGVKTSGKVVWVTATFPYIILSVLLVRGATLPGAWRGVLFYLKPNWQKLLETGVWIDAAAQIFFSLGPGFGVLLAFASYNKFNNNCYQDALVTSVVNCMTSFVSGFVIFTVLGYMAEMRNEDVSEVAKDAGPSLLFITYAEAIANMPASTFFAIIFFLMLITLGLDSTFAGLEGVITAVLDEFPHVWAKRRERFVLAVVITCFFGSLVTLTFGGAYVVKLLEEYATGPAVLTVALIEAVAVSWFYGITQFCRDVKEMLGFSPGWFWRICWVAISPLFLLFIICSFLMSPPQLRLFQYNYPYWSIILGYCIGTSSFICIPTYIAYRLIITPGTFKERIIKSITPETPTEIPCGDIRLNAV
From the text: as §1

5-HT2B [3] = biological target: T1, 5-HT2B; assay: 5-HT2B binding
From the text: as §1

5-HT2B [4] = biological target: T1, 5-HT2B; assay: 5-HT2B antagonist functional activity; assay type: biochemical
From the text: as §1

Adrenergic alpha2B = Adrenergic alpha2B (Homo sapiens, UniProt P18089); assay: Adrenergic alpha2B binding
Adrenergic alpha2B, sequence (P18089 whole entry): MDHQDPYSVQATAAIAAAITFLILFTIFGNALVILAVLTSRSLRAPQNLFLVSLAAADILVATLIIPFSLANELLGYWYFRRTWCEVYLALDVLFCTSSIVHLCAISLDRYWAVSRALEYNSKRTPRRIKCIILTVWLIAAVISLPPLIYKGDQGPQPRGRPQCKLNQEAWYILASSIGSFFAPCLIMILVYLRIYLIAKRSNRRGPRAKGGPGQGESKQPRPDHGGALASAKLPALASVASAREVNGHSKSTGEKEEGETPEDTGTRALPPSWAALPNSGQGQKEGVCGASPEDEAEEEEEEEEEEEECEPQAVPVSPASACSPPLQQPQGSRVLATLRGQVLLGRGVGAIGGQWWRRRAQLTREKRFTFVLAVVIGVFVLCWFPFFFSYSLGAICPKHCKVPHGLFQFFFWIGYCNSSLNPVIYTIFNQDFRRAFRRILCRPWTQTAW
From the text: as §1

Adrenergic alpha2C, sequence (P18825 whole entry): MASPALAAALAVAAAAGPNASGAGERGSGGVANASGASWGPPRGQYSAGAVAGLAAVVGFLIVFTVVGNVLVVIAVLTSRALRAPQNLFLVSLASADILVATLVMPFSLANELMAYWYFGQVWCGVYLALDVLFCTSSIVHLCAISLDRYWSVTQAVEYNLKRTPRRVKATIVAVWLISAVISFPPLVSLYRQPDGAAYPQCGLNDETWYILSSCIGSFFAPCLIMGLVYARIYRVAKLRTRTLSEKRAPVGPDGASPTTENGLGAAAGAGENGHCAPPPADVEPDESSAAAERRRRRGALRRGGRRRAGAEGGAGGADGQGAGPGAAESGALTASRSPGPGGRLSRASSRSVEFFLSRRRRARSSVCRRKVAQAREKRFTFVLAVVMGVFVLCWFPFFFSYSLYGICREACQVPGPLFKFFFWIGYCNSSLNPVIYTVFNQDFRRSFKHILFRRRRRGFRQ

Q: Which results are given for `Cc1ccc2c(c1)Oc1sc(C)cc1C(N1CCN(CC(C)(C)C(=O)O)CC1)=N2` [Example 2, 3-[4-(2,8-Dimethylthieno[2,3-b][1,5]benzoxazepin-4-yl)piperazin-1-yl]-2,2-dimethyl-propanoic acid dihydrochloride]?
A: Ki (Adrenergic alpha2C): > 5550 nM; EC50 (5-HT2B [1]): > 10000 nM; Ki (Dopamine D2): 2480 nM; Ki [2]: 883 nM; Ki (5-HT5): > 8830 nM; Ki (Dopamine D3): > 5660 nM; IC50 (native GABAA receptors): 98000 nM; Ki (Dopamine D1): 2350 nM; Ki (Dopamine Transporter): > 877 nM; Ki (Norepinephrine Transport): > 674 nM; hERG Channel (hERG Channel): >100 µM; Ki (Serotonin Transporter): > 651 nM; Ki (5-HT2B [3]): 95.8 nM; Kb (5-HT2B [4]): 45 nM; Ki (Adrenergic alpha2B): 3710 nM

— patent publication US9512140B2, “(Thieno[2,3-b][1,5]benzoxazepin-4-yl)piperazin-1-yl compounds as dual activity H1 inverse agonists/5-HT2A antagonists” (priority 2011, dated 2016)
